Reference: patent EP0414533A1, “Use of iodopropargyl esters of alpha-amino acid derivatives as antimicrobial agents” (ROHM AND HAAS COMPANY, priority 1989, dated 1991)
Values after ≈ are worked out from the molar mass of the structure shown. Read-outs that look alike come from different tables or passages of the source.

Experiments:
[1] = tested on: Xanthomonas campestris (XAN); experiment: In-vitro plant fungicide test; format: cell-based; conditions: Xanthomonas campestris; 25 ppm; Table IVa; read-out: % Control at 25 ppm XAN
[2] = tested on: Pseudomonas aerugenosa (PSAE); experiment: Minimum inhibitory concentration (MIC), broth two-fold serial dilution test; conditions: Pseudomonas, IIIB, read-out: MIC (G-) PSAE, trypticase soy broth (complex media); Table IIIb
Text: When the test is ready to be done, each vessel in the dilution series, except the first vessel, contains an equal volume of compound free broth. The first vessel contains twice the volume of broth with the starting concentration of test compound. One half of the broth from the first vessel is transferred to the second vessel. After being mixed, one half the resulting volume is removed from the second vessel and transferred to the third vessel. The entire cycle is repeated sufficiently to give a series of concentrations amounting to 500, 250, 125, 63, 31, 16, 8, and 4 ppm (or 100, 50, 25, 12.5, 6.2, 3.1, 1.6, and 0.8), respectively.
Each vessel is then inoculated with a cell suspension of the appropriate test organism. Bacteria are grown in broth, fungi on agar slants for a time and at a temperature appropriate to the species being tested, and algae are a mixture of green algae and blue-green bacteria grown in a nutrient media. At the end of the growth period, in the case of bacteria, the broth is vortexed to disperse the cells.
The vessels are then incubated at the appropriate temperature. After the incubation, the vessels are examined for growth/no growth.

Rhizoctonia solani (RHI) = experiment: In-vitro plant fungicide test; format: cell-based; conditions: Rhizoctonia solani; 25 ppm; Table IVa; read-out: % Control at 25 ppm RHI
Fusarium roseum (FUS) = experiment: In-vitro plant fungicide test; format: cell-based; conditions: Fusarium sambucinum, read-out: % Control at 25 ppm FUS, 25 ppm; Table IVa; *=Phytotoxic
Septoria nodorum (SEP) = experiment: In-vitro plant fungicide test; format: cell-based; conditions: Parastagonospora nodorum, 25 ppm; Table IVa; read-out: % Control at 25 ppm SEP
8 FUNGI = experiment: Microbicides secondary test against 8 fungi on Mycophile Agar at pH 5.0 (Table VI); format: cell-based; parameters: key: 1= no growth; 0= growth of the indicated fungi at dose indicated in ppm; conditions: for ANIG growth: Aspergillus niger; for APUL growth: Aureobasidium pullulans; for CGLO growth: Chaetomium globosum; for CRES growth: Cladosporium resinae; for GTRA growth: Gloeophyllum trabeum; for PFUN growth: Penicillium funiculosum; for RRUB growth: Rhodotorula rubra; for SSER growth: Sacharomyces cerevisiae
Text: The results of the minimum inhibitory concentration (MIC) tests of compounds of this invention are shown in Tables IIIa IIIb, IIIc, V, VI, VII, and VIII against the microorganisms shown in Table IX.

[3] = tested on: Phytophthora capsici (PHY); experiment: In-vitro plant fungicide test; format: cell-based; conditions: Phytophthora capsici; 25 ppm; Table IVa; read-out: % Control at 25 ppm PHY
[4] = tested on: MIXED COOLING TOWER ALGAE; experiment: MIC test against mixed cooling tower algae; format: cell-based, green algae and blue-green bacteria; conditions: Table VIII
Procedure: The algae culture contains green algae and blue-green bacteria, and is obtained from a cooling tower in Spring House, Pennsylvania. The algae culture is grown in Allen's medium on a rotary shaker under flourescent room lighting. This culture is further diluted with Allen's medium and then added to the test vessel.

[5] = tested on: Staphylococcus aureus (SAUR); experiment: Minimum inhibitory concentration (MIC), broth two-fold serial dilution test; conditions: Staphylococcus aureus, IIIB, read-out: MIC (G+) SAUR, trypticase soy broth (complex media); Table IIIb
THREE FUNGI = experiment: MIC test against three fungi in Mycophile Broth, pH 5.0, read after 8 days (Table VII); format: cell-based; conditions: 192 h, serial dilutions from 50 ppm, read after 8 days of incubation
Piricularia oryzae (PIR) = experiment: microbe, parasite or virus in culture; format: cell-based; conditions: read-out: % Control at 25 ppm PIR
Aspergillus niger (ANIG) = experiment: Minimum inhibitory concentration (MIC), broth two-fold serial dilution test; format: cell-based; conditions: Aspergillus niger, IIIB, trypticase soy broth (complex media); Table IIIb; read-out: MIC (F) ANIG

O=C(CNC(=O)c1ccccc1)OCC#CI [Compound 29, N-benzoylglycine iodopropargyl ester]
inhibition of growth at 25 ppm [1]: 0% | MIC [2]: 125 µg/mL (≈ 364 µM) | inhibition of growth at 25 ppm (Rhizoctonia solani (RHI)): 100% | inhibition of growth at 25 ppm (Fusarium roseum (FUS)): 100% | inhibition of growth at 25 ppm (Septoria nodorum (SEP)): 100% | ANIG growth (8 FUNGI; 0.2 PPM): 0 | ANIG growth (8 FUNGI; 1.0 PPM): 1 | ANIG growth (8 FUNGI; 2.5 PPM): 1 | ANIG growth (8 FUNGI; 25 PPM): 1 | APUL growth (8 FUNGI; 0.2 PPM): 0 | APUL growth (8 FUNGI; 1.0 PPM): 0 | APUL growth (8 FUNGI; 2.5 PPM): 0 | APUL growth (8 FUNGI; 25 PPM): 1 | CGLO growth (8 FUNGI; 0.2 PPM): 0 | CGLO growth (8 FUNGI; 1.0 PPM): 0 | CGLO growth (8 FUNGI; 2.5 PPM): 0 | CGLO growth (8 FUNGI; 25 PPM): 1 | CRES growth (8 FUNGI; 0.2 PPM): 0 | CRES growth (8 FUNGI; 1.0 PPM): 0 | CRES growth (8 FUNGI; 2.5 PPM): 0 | CRES growth (8 FUNGI; 25 PPM): 1 | GTRA growth (8 FUNGI; 0.2 PPM): 0 | GTRA growth (8 FUNGI; 1.0 PPM): 1 | GTRA growth (8 FUNGI; 2.5 PPM): 1 | GTRA growth (8 FUNGI; 25 PPM): 1 | PFUN growth (8 FUNGI; 0.2 PPM): 0 | PFUN growth (8 FUNGI; 1.0 PPM): 0 | PFUN growth (8 FUNGI; 2.5 PPM): 1 | PFUN growth (8 FUNGI; 25 PPM): 1 | RRUB growth (8 FUNGI; 0.2 PPM): 0 | RRUB growth (8 FUNGI; 1.0 PPM): 0 | RRUB growth (8 FUNGI; 2.5 PPM): 0 | RRUB growth (8 FUNGI; 25 PPM): 1 | SSER growth (8 FUNGI; 0.2 PPM): 0 | SSER growth (8 FUNGI; 1.0 PPM): 0 | SSER growth (8 FUNGI; 2.5 PPM): 0 | SSER growth (8 FUNGI; 25 PPM): 1 | inhibition of growth at 25 ppm [3]: 100% | MIC [4]: 6.2 µg/mL (≈ 18.1 µM) | MIC [5]: 32 µg/mL (≈ 93.3 µM) | MIC (THREE FUNGI; Aspergillus niger, read-out: MIC ANIG): 1.6 µg/mL (≈ 4.66 µM) | MIC (THREE FUNGI; Aureobasidium pullulans, read-out: MIC APUL): 12.5 µg/mL (≈ 36.4 µM) | MIC (THREE FUNGI; Gloeophyllum trabeum, read-out: MIC GTRA): 3.2 µg/mL (≈ 9.33 µM) | inhibition of growth at 25 ppm (Piricularia oryzae (PIR)): 100% | MIC (Aspergillus niger (ANIG)): 0.5 µg/mL (≈ 1.46 µM)
